Data as given in a melting point compilation (Tetko et al.; mined from patent text by program, amines drawn as free bases though some values may be those of a salt).

Row | Structure (SMILES) | melting point
1 | CCc1cc(N(Cc2ccc(-c3ccccc3-c3nnn(C(c4ccccc4)(c4ccccc4)c4ccccc4)n3)cc2)C(C)=O)cc(CC)n1 | 98 to 102 °C
2 | NC(=O)Cc1c(-c2ccccc2)nn2cccnc12 | 217 to 219 °C
3 | CC(C)NS(=O)(=O)c1cccc(NC(=O)c2cnn3c(C(F)(F)F)cc(-c4ccc(C(F)(F)F)cc4)nc23)c1 | 222 °C
4 | Oc1ccccc1-c1ccc2nonc2c1 | 166 to 169 °C
5 | COc1cc(OCCn2cccc2)ccc1/C=C/c1cc(/C=C/c2ccc3cc[nH]c3c2)n[nH]1 | 102 to 110 °C
6 | O=C(Nc1ccc(Br)cc1)Nn1cnc2c(O)cccc2c1=O | 276 to 278 °C
7 | CC(C)Cn1c(=O)n(C)c(=O)c2c(SCCC(C)O)c(Cc3cccc4ccccc34)sc21 (stereo not given) | 162 to 163 °C
8 | CC(C)(C)OC(=O)N[C@@H](Cc1ccccc1)C(=O)N[C@H]1CCOC1=O | 132 to 133 °C
9 | Cc1sc(CCc2ccc(C=O)cc2)nc1-c1ccccc1 | 66 to 67 °C
10 | CSCC[C@@H](NC(=O)OC(C)(C)C)C(=O)NCC(=O)O | 124 to 126 °C
11 | Cc1ccc(CCc2n[nH]c3c2c(=O)n(-c2ccccc2)c2ncccc32)cc1 | 264 to 265 °C
12 | O=c1cc(-c2ccccc2SCc2ccccc2)[nH]c2ccc(Cl)cc12 | 198 to 202 °C
13 | CCN1C(=O)C(C)(C)C(=O)N(C)c2cc(OCCCN3C(=O)Cc4ccccc43)ccc21 | 146 to 149 °C
14 | CN1CCC(C(=NNc2ccccc2)c2ccccc2F)CC1 | 131 to 134 °C
15 | O=c1c2c(Cl)cc(Cl)cc2n(Cc2ccccc2)c(=O)n1Cc1ccccc1 | 104 to 106 °C
16 | Cc1cc2c(s1)N(C(C)C)c1ccccc1N=C2N1CCN(C)CC1 | 120 to 121 °C
17 | CNC(=O)C1=CC(CF)(CF)Oc2ccc(C(F)(F)F)cc21 | 162 to 164 °C
18 | CC1(C(=O)NCc2cccs2)CC1 | 70 to 71 °C
19 | O=C(c1ccc(Cl)cc1)C(O)(Cn1cncn1)C(Cl)(Cl)Cl (stereo not given) | 173 to 174 °C
20 | O[C@@H]1CNCC[C@H]1Sc1ccccc1 (relative stereo) | 135 to 136 °C
21 | CCOC(=O)CN(CC(=O)OCC)C(=O)c1cc(OCCCCCCOc2ccc(-c3ccccc3)cc2)ccc1OCc1ccccc1 | 60 to 62 °C
22 | CC(C)CCC(O)C(C(=O)C(Cc1c[nH]cn1)N(C)C(=O)C(Cc1ccccc1)OC(=O)N(C)CCN(C)C(=O)C(C)C)C(N)C1CCCCC1 (stereo not given) | 68 to 72 °C
23 | Nc1cccc(C(=O)N(CCN2CCC(C(=O)c3ccc(F)cc3)CC2)c2ccc(F)cc2)c1 | 159 to 162 °C
24 | O=c1[nH]c2ccc(-c3cc(=O)c4ccccc4o3)cc2o1 | 348 °C
25 | CC(C)CCn1c(=O)c(=NNc2ccccc2)c(=O)n(-c2ccccc2)c2ccccc21 | 143 °C
26 | Cc1c(-c2ccccc2Cl)n(-c2ccccc2Cl)c(-c2ccccc2Cl)cc1=O | 205 to 207 °C
27 | N#Cc1ccc(N(Cc2ccc(OCc3ccccc3)cc2)n2cnnc2)cc1-c1ccc(C(F)(F)F)cc1 | 173 to 175 °C

Row | Structure (SMILES) | melting point
28 | CCCCCc1ccc(CC(=O)c2ccc(O)cc2)cc1 | 112 °C
29 | OCCCc1ncnn1C(c1ccccc1)(c1ccccc1)c1ccccc1 | 150 to 152 °C
30 | Cc1ccc(N2C(=O)CN3C(=O)CC[C@@H]32)cc1 | 149 to 150 °C
31 | Cc1c(NC(=O)C(CSC(=O)C(C)C)Cc2ccccc2)cccc1C(=O)O (stereo not given) | 178 to 183 °C
32 | O=C(Cc1ccccc1)c1ccc(OCC2CO2)cc1 (stereo not given) | 81 to 82.4 °C
33 | O=C(NCC(Cc1ccccc1)C(=O)Nc1n[nH]c(=S)s1)OCc1ccccc1 (stereo not given) | 88 to 90 °C
34 | CS(=O)(=O)c1ccc(-c2cnn(-c3ccc(F)cc3)c(=O)c2-c2cccc(F)c2)cc1 | 199 to 201 °C
35 | CCOCCCn1cnc(-c2ccc(F)cc2)c1-c1ccncc1 | 85 to 86 °C
36 | C#Cc1c2c3c(cccc3n1C)C1CC(NC(=O)N(CC)CC)CN(C)C1C2 (stereo not given) | 126 °C
37 | CN1CC(CCCN2CCN(c3ncccn3)CC2)OC1=O (stereo not given) | 79 to 89 °C
38 | Cn1cc(CN2CCCNC2=C[N+](=O)[O-])cn1 | 186 to 190 °C
39 | Brc1ccc(Nc2ncc(-c3ccccc3)s2)nc1 | > 220 °C
40 | COCCCN(C(=O)N(CCCl)N=O)C1(O)C(OCC(C)C)OCC(O)C1O (stereo not given) | 84 to 86 °C
41 | O=C(NCCO)c1cccc(-c2cccc3c2OC(Cc2cccc(C(F)(F)F)c2)C3)c1 (stereo not given) | 161 to 162 °C
42 | CC(C)(C)OC(=O)N[C@H]1C=C[C@@H](C(=O)O)C1 | 153 to 155 °C
43 | CC(=O)N1CCN(c2ccc(-c3ccn[nH]3)cc2)CC1 | 257 to 259 °C
44 | COc1ccc(N2CCN(c3c(C)c(C)c4c(c3C)C(c3ccc(Cl)cc3)C(C)(C)O4)CC2)cc1 (stereo not given) | 181 to 183 °C
45 | OCc1ccc2c(c1)ncn2-c1cccc(-c2ccccc2)c1 | 130 to 131 °C
46 | Cn1c(=O)n(Cc2ccc(F)cc2)c(=O)c2cc(C(=O)c3nc(Br)c4ccccn34)ccc21 | 280 °C
47 | CSc1sc(-c2ccno2)c2c1C(=O)CC(C)(C)C2 | 143 to 145 °C
48 | O=c1[nH]c2cc(Sc3cccc4cnccc34)c([N+](=O)[O-])cc2s1 | > 270 °C
49 | Cc1ccc(-c2cc(C(=O)O)nn2Cc2ccc(C)c(Cl)c2)cc1C | 163 °C
50 | CCCCCCC#CCC#CCC#CCC#CCCCC(=O)NO | 85 to 88 °C
51 | CC(C)=C1OC(=O)N(c2ccc(C)cc2)C1=O | 136 °C
52 | Cc1c(-c2ccccc2)c(C2=CC(N(C)C)CC2)c2oc(C3CC3)nc2c1C#N (stereo not given) | 144 to 146 °C
53 | N#CN=C(Nc1ccncc1)NC1CCCCCCC1 | 198 to 199 °C

Second part, the compound after the results:

Row | melting point | Structure (SMILES)
54 | 138 to 140 °C | NC(=O)N(O)Cc1cccc2ccsc12
55 | 112 to 114 °C | CC(C(=O)OCCO)n1c(-c2ccc(Cl)cc2)nc2cccnc21 (stereo not given)
56 | 222 to 226 °C | OC1=NN(c2cc(-c3ccnc(Nc4cccc(Cl)c4)n3)ccn2)CC1
57 | > 255 °C | COc1cc2c(O)nc(O)nc2c(OC)c1OC
58 | 191 to 193 °C | COc1ccc(NC(=O)c2ccc(F)c(F)c2)cc1NS(=O)(=O)CCl
59 | 138 to 139 °C | O=C1CCC(O)(c2ccc(Cl)cc2)CC1
60 | 231 °C | Cc1ccc2c(n1)[nH]c1ccc(C(=O)c3ccccc3)cc12
61 | 101 to 102 °C | CCCCCCNC(=O)c1cnc(Cl)nc1
62 | 122 to 123 °C | COC(=O)NC=Cc1ccc(OCC(O)CNC(C)CC#N)cc1 (stereo not given)
63 | 206 to 207 °C | CCc1cc(OC)c(OC)cc1Cc1cnc(N)nc1N
64 | 102 to 104 °C | O=C(Oc1ccccc1)c1cc(Cl)c2ccccc2c1O
65 | 125 to 126 °C | Cc1nc(N2CCN(Cc3ccccc3)C2=N)sc1C(=O)NCc1ccccc1
66 | 180 °C | CC(=O)OC1CSC(Oc2ccc(-c3cccnc3Cl)nc2)C(OC(C)=O)C1OC(C)=O (stereo not given)
67 | 160 to 163 °C | CCc1nc2c(N)nc3ccccc3c2n1CCOCCS(C)(=O)=O
68 | 160 °C | OCc1ccnc2cc(Cl)ccc12
69 | 218 °C | NC(=O)[C@@H]1[C@H]2CC[C@H](C2)[C@@H]1Nc1nc(Nc2ccc3c(c2)CCC(NCC(F)(F)F)CC3)ncc1Cl (stereo not given in full)
70 | 130 to 131 °C | CCOC(=S)c1cnc(C)nc1N
71 | 105 to 108 °C | Cc1cc(C)nc(NC(=O)N(C)C)c1
72 | 186 °C | COC(=O)c1ccc(C=CC(=O)N2CCc3c([nH]c4ccccc34)C2c2ccc3c(c2)CCO3)cc1 (stereo not given)
73 | 159 to 162 °C | COc1cc2c(cc1S(C)(=O)=O)CCN(C(C)=O)CC2
74 | 224 to 225 °C | Nn1cc(Cl)c(=O)[nH]c1=O
75 | 226 to 229 °C | CON=Cc1ccc(N2C(=O)C(O)=C(C(=O)c3ccc(OC)cc3)C2c2ccccc2)cc1 (stereo not given)
76 | 213 °C | CC#CCOc1ccc(S(=O)(=O)C2(C(=O)O)CCN(Cc3ccc(Cl)c(Cl)c3)CC2)cc1
77 | 166 to 167 °C | COc1ccc(CC(=O)Nc2c(C)c(C)c3c(c2C)[C@@H](c2ccc(C)cc2)C(C)(C)O3)cc1

Row | melting point | Structure (SMILES)
78 | 163 to 164 °C | COC(=O)c1[nH]c2c(C)ccc(C)c2c1S(C)(=O)=O
79 | 84 °C | COc1ccccc1CC(=O)NCc1cccs1
80 | 246 to 247 °C | CCOCc1nc2c(N)nc(C)c(C)c2n1Cc1cc(-c2ccc(F)cc2)no1
81 | 210 to 211 °C | CNC(=O)c1c(NC(=O)c2cc(C(F)(F)F)nn2-c2ncccc2Cl)ccc2ncccc12
82 | 155 to 160 °C | COC(=O)C(=O)Nc1ccc(C#N)c(NC(=O)C(=O)OC)c1
83 | 84 °C | CCCCCCCCCCCCCCCCCC(=O)N[C@@H](C)C(=O)OC
84 | 185 to 187 °C | CNc1ncnc(N2CCc3ccccc32)n1
85 | > 300 °C | COc1cc(OC)c2c(=O)[nH]c(-c3cc(-c4ccc(S(C)=O)cc4)cs3)nc2c1 (stereo not given)
86 | 240 °C | CC12CCC(C(=Cc3ccc(C(=O)O)cc3)C1=O)C2(C)C (stereo not given)
87 | 170 to 171 °C | CNc1nnc(C(C)(C)C)c(=O)n1NC
88 | 106 to 109 °C | CC(C)c1ccc(C(=O)C(=O)c2ccccc2)c(C(C)C)c1OS(N)(=O)=O
89 | 129 to 130 °C | CC1(Cc2ccc(Br)cc2)C(=O)N(c2cc(Cl)cc(Cl)c2)c2ccccc21 (stereo not given)
90 | 111 to 113 °C | CN1CCCC(c2cccc(-n3cnc4cc(C(=O)OCC5CC5)ccc43)c2)C1 (stereo not given)
91 | 114 °C | COc1ccccc1Oc1cccc2c1NC(=O)C2SC (stereo not given)
92 | 129 to 131 °C | CCNc1nc(C)c(-c2ccncc2)s1
93 | 96 to 97 °C | C=Cc1c(C(=O)OC)nc(Cl)c(Cl)c1N
94 | 129 °C | COC(=O)C(O)C(NC(=O)OCc1ccccc1)C(=O)OC (stereo not given)
95 | 222 to 224 °C | CCNCC1CCN(c2c(F)cc3c(=O)c(C(=O)O)cn(CC(F)(F)F)c3c2F)C1 (stereo not given)
96 | 97.5 to 99 °C | Cc1cc(C=O)ccc1C(O)c1cccnc1 (stereo not given)
97 | 110 to 111 °C | O=C(COc1cccc(CCNS(=O)(=O)c2ccc(Cl)cc2)c1)N1CCOCC1
98 | 221 °C | CC(C)(C)c1nc2cc(N3CCCC3)c(NC(N)=S)cc2s1
99 | 192 to 194 °C | CCOc1ccc(Nc2ncc3cc(-c4c(Cl)cccc4Cl)c(=O)n(CC)c3n2)cc1
100 | 185 to 190 °C | NS(=O)(=O)c1ccc(NC(=O)CCl)cc1C(F)(F)F
